Data on eleven compounds can be found in article PMC6028563, “Probing Substituents in the 1- and 3-Position: Tetrahydropyrazino-Annelated Water-Soluble Xanthine Derivatives as Multi-Target Drugs With Potent Adenosine Receptor Antagonistic Activity” (Frontiers in Chemistry, 2018).

Test [1] deals with T1, human A2B AR (Homo sapiens, UniProt P29275).
T1 construct: expressed in transfected cells; host or cells: CHO cells
T1 sequence (P29275 1-332): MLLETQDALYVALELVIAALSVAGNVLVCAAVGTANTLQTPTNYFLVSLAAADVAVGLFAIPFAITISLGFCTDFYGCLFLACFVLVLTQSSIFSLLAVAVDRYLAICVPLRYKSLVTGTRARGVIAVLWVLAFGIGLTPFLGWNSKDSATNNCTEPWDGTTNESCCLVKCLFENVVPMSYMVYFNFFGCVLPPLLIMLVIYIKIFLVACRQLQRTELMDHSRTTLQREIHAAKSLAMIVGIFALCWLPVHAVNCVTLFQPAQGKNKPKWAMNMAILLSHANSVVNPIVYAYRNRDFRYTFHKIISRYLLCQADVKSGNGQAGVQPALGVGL
Kind of test: Radioligand binding assay at human A2B AR vs. [^3H]PSB-603. Particulars: for Ki: CHO cell membranes, n = 2 (n = 3 where marked a), read-out: Ki ± SEM, A2B vs. [^3H]PSB-603; for inhibition at 1 µM: at 1,000 nM. In outline: (§1)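 Affinity values derive from radioligand displacement on membrane preparations: native rat tissue (cortex for A1, striatum for A2A) or CHO cells recombinantly expressing human A1, A2A, A2B or A3 ARs.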

Test [2] deals with T2, rat A1 AR (Rattus norvegicus, UniProt P25099).
T2 construct: A1 ARs of rat brain cortical membrane; from tissue; host or cells: rat brain cortex membranes
T2 sequence (P25099 1-326): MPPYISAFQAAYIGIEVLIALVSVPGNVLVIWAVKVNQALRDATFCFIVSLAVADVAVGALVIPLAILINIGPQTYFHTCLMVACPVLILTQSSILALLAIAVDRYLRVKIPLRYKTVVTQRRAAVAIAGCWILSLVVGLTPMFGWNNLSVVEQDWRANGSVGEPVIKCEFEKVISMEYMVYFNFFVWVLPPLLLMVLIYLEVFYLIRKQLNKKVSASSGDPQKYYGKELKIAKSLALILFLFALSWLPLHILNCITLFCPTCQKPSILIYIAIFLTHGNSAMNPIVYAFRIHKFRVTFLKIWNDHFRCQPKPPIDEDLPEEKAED
The test is described as follows: Radioligand binding assay at rat A1 AR (rat brain cortex) vs. [^3H]CCPA. Particulars: rat (r); for Ki: rat brain cortex, n = 3. The method in brief: as §1

The target in test [3] is T3, recombinant human MAO-B (Homo sapiens, UniProt P27338).
T3 construct: purchased Sigma-Aldrich M7441; host or cells: baculovirus-infected insect cells
T3 sequence (P27338 1-520): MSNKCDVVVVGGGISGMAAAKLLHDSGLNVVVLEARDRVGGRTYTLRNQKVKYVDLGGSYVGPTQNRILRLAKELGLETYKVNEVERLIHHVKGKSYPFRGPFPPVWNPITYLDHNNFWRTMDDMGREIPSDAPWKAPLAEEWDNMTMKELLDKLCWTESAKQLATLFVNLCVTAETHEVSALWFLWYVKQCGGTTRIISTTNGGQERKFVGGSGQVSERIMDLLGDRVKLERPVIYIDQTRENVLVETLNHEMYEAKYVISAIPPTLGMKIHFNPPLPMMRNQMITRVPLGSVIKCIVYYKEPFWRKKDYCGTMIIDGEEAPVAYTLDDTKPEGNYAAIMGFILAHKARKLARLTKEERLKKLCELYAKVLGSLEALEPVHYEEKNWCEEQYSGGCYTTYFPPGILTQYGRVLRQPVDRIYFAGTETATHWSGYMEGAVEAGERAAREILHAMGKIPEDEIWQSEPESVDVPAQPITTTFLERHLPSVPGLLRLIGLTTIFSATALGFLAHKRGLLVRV
Kind of test: Monoamine oxidase assay (Amplex Red), MAO-B. Particulars: for inhibition at 10 µM: at 10,000 nM (10 μM), read-out: % inhibition at indicated concentration, Human MAO-B; for IC50: n = 3, read-out: IC50 ± SEM, Human MAO-B. The format is biochemical. In outline: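 Inhibition was measured with an Amplex Red monoamine oxidase assay, using human MAO-A and MAO-B produced recombinantly in baculovirus-infected insect cells. For rat MAO-B, liver mitochondria-enriched fractions from male Sprague Dawley rats served as enzyme source.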

Test [4] concerns the target T4, rat A2A AR (Rattus norvegicus, UniProt P30543).
T4 construct: A2A ARs of rat brain striatal membrane preparations; from tissue; host or cells: rat brain striatum membranes
Kind of test: Radioligand binding assay at rat A2A AR (rat brain striatum) vs. [^3H]MSX-2. The note with it: rat (r); for % inhibition of radioligand binding at indicated concentration, A2A vs. [^3H]MSX-2: at 1,000 nM; for Ki: rat brain striatum, n = 3, read-out: Ki ± SEM, A2A vs. [^3H]MSX-2. In outline: as §1

The target of test [5] is T5, human A1 AR (Homo sapiens, UniProt P30542).
T5 construct: expressed in transfected cells; host or cells: CHO cells
T5 sequence (P30542 1-326): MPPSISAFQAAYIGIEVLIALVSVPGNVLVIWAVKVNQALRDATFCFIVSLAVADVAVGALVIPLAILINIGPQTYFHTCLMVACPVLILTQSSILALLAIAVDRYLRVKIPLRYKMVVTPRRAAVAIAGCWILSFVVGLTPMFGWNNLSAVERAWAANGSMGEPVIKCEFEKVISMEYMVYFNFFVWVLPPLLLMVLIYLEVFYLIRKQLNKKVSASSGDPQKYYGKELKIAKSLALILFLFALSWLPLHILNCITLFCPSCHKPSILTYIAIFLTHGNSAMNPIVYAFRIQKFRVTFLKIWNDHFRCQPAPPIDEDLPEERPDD
The test is described as follows: Radioligand binding assay at human A1 AR vs. [^3H]CCPA. The note with it: human (h); CHO cell membranes; n = 3. In outline:
as §1

The mark [6] stands for this setting: read-out: % inhibition of radioligand binding at indicated concentration, A2B vs. [^3H]PSB-603.

One may read the Ki as a measure of affinity in units of concentration, obtained from inhibition or displacement. One may read the IC50 as the midpoint of a concentration-inhibition curve.

T4 sequence (P30543 whole entry): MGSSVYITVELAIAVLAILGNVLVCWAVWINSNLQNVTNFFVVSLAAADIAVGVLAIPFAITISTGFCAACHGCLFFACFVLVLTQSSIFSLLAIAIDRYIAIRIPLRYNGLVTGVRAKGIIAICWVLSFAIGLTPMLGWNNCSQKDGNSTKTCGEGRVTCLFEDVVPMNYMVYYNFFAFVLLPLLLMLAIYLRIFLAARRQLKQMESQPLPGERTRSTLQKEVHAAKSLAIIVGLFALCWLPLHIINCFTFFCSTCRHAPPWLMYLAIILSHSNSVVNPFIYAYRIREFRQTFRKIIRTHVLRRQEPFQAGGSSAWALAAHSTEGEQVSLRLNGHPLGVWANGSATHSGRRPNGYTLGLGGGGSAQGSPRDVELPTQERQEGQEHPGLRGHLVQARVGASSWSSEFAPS

As to `CCn1c(=O)c2c(nc3n2CCN(Cc2ccc(F)c(Br)c2)C3)n(CC)c1=O` [Compound 15k, 8-(3-bromo-4-fluorobenzyl)-1,3-diethyl-6,7,8,9-tetrahydropyrazino[2,1-f]purine-2,4(1H,3H)-dione], the Ki in test [1] is more than 1000 nM; in test [2], 270 ± 60 nM; in test [4], more than 1000 nM; in test [5] it was 362 ± 98 nM. Moreover, the inhibition at 1 µM in test [1] (setting [6]) is 34%. Besides, in test [3], the inhibition at 10 µM was found to be 63%. Besides, the IC50 in test [3] is less than 10000 nM. The “% inhibition of radioligand binding at indicated concentration, A2A vs. [^3H]MSX-2” value in test [4] came out at 30%.
Turning to `CCn1c(=O)c2c(nc3n2CCN(Cc2cc(Br)ccc2F)C3)n(CC)c1=O` [Compound 15l, 8-(5-bromo-2-fluorobenzyl)-1,3-diethyl-6,7,8,9-tetrahydropyrazino[2,1-f]purine-2,4(1H,3H)-dione], the Ki in test [1] is more than 1000 nM; in test [2], 33.5 ± 5.6 nM; in test [4], 756 ± 46 nM; in test [5] it was 75.4 ± 16.1 nM. For the same compound, in test [1] (setting [6]), the inhibition at 1 µM worked out at 24%. Moreover, the IC50 in test [3] turned out to be 1310 nM.
For `CCn1c(=O)c2c(nc3n2CCN(Cc2cc(Cl)cc(Cl)c2)C3)n(CC)c1=O` [Compound 15m, 8-(3,5-dichlorobenzyl)-1,3-diethyl-6,7,8,9-tetrahydropyrazino[2,1-f]purine-2,4(1H,3H)-dione], the inhibitory constant (Ki) in test [1] was more than 1000 nM; in test [2] it was 89.6 ± 21.4 nM; in test [4] it was 2200 nM; in test [5], 207 ± 48 nM. Besides, in test [1] (setting [6]), the inhibition at 1 µM was determined as 23%. Besides, the inhibition at 10 µM in test [3] worked out at 66%. Besides, the IC50 in test [3] is less than 10000 nM.
On to `CCn1c(=O)c2c(nc3n2CCN(Cc2cc(C(F)(F)F)ccc2Cl)C3)n(CC)c1=O` [Compound 15n, 8-(2-chloro-5-(trifluoromethyl)benzyl)-1,3-diethyl-6,7,8,9-tetrahydropyrazino[2,1-f]purine-2,4(1H,3H)-dione], for which the Ki is more than 1000 nM in test [1], 19.6 ± 3 nM in test [2], 871 ± 50 nM in test [4] and 22.6 ± 2.7 nM in test [5]. Also, the inhibition at 1 µM in test [1] (setting [6]) amounted to 23%. In addition, the inhibition at 10 µM in test [3] was found to be 54%. Also, in test [3], the IC50 is not above 10000 nM.
In the case of `CCn1c(=O)c2c(nc3n2CCN(Cc2cc(F)c(F)c(F)c2)C3)n(CC)c1=O` [Compound 15r, 1,3-diethyl-8-(3,4,5-trifluorobenzyl)-6,7,8,9-tetrahydropyrazino[2,1-f]purine-2,4(1H,3H)-dione], the inhibitory constant (Ki) in test [1] is more than 1000 nM; in test [2], more than 1500 nM; in test [4], more than 1000 nM; in test [5], 1190 nM. Besides, the inhibition at 1 µM in test [1] (setting [6]) was 23%. Further, the inhibition at 1.5 µM in test [2] (read-out: % inhibition of radioligand binding at indicated concentration, A1 vs. [^3H]CCPA, at 1,500 nM) is 25%. For the same compound, the IC50 in test [3] came out at 524 ± 26 nM. Moreover, the “% inhibition of radioligand binding at indicated concentration, A2A vs. [^3H]MSX-2” value in test [4] stood at 36%.
For `CCn1c(=O)n(C)c(=O)c2c1nc1n2CCN(Cc2ccc(Cl)c(Cl)c2)C1` [Compound 16a, 8-(3,4-dichlorobenzyl)-1-ethyl-3-methyl-6,7,8,9-tetrahydropyrazino[2,1-f]purine-2,4(1H,3H)-dione], the Ki in test [1] was more than 1000 nM; in test [2], 236 ± 23 nM; in test [4], 1100 nM; in test [5] it was 396 ± 154 nM. For the same compound, in test [1] (setting [6]), the inhibition at 1 µM turned out to be 5%. For the same compound, the half-inhibitory concentration (IC50) in test [3] is 106 ± 10 nM.
Take `CCn1c(=O)n(C)c(=O)c2c1nc1n2CCN(Cc2cc(Cl)cc(Cl)c2)C1` [Compound 16b, 8-(3,5-dichlorobenzyl)-1-ethyl-3-methyl-6,7,8,9-tetrahydropyrazino[2,1-f]purine-2,4(1H,3H)-dione]: the inhibitory constant (Ki) is more than 1000 nM in test [1], 49.3 ± 8 nM in test [2], 1490 nM in test [4] and 143 ± 16 nM in test [5]. Besides, the inhibition at 1 µM in test [1] (setting [6]) worked out at 5%. Besides, the IC50 in test [3] is 136 ± 5 nM.
`Cn1c(=O)c2c(nc3n2CCN(Cc2ccc(Cl)c(Cl)c2)C3)n(C2CC2)c1=O` [Compound 17, 8-(3,4-dichlorobenzyl)-1-cyclopropyl-3-methyl-6,7,8,9-tetrahydropyrazino[2,1-f]purine-2,4(1H,3H)-dione]: the Ki in test [1] is more than 100 nM; in test [2], 584 ± 8 nM; in test [4], 3940 nM; in test [5], 1130 nM. The inhibition at 0.1 µM in test [1] (at 100 nM, read-out: % inhibition of radioligand binding at indicated concentration, A2B vs. [^3H]PSB-603) was 2%. For the same compound, the IC50 in test [3] worked out at 3690 nM.
Regarding `C#CCn1c(=O)c2c(nc3n2CCN(Cc2ccc(Cl)c(Cl)c2)C3)n(C)c1=O` [Compound 19a, 8-(3,4-dichlorobenzyl)-1-methyl-3-propargyl-6,7,8,9-tetrahydropyrazino[2,1-f]purine-2,4(1H,3H)-dione], the Ki in test [1] was more than 1000 nM; in test [2], 292 ± 21 nM; in test [4] it was 642 ± 194 nM; in test [5] it was 967 ± 211 nM. In test [1] (setting [6]), the inhibition at 1 µM was 23%. For the same compound, in test [3], the concentration for half-maximal inhibition (IC50) was 679 ± 17 nM.
As for `C#CCn1c(=O)c2c(nc3n2CCN(Cc2cc(C(F)(F)F)ccc2Cl)C3)n(C)c1=O` [Compound 19b, 8-(2-chloro-5-(trifluoromethyl)benzyl)-1-methyl-3-propargyl-6,7,8,9-tetrahydropyrazino[2,1-f]purine-2,4(1H,3H)-dione], the Ki is more than 1000 nM in test [1], 153 ± 10 nM in test [2], 414 ± 49 nM in test [4] and 110 ± 4 nM in test [5]. Besides, the inhibition at 1 µM in test [1] (setting [6]) turned out to be 3%. In addition, in test [3], the inhibition at 10 µM was 59%. Moreover, the IC50 in test [3] is less than 10000 nM.
With `C#CCn1c(=O)c2c(nc3n2CCN(c2cccc(OC)c2)C3)n(CC)c1=O` [Compound 20c, 1-ethyl-8-(3-methoxyphenyl)-3-propargyl-6,7,8,9-tetrahydropyrazino[2,1-f]purine-2,4(1H,3H)-dione], the Ki in test [1] is more than 1000 nM; in test [2], 328 ± 70 nM; in test [4], 250 ± 80 nM; in test [5], 946 ± 166 nM. Moreover, the inhibition at 1 µM in test [1] (setting [6]) came out at 38%. For the same compound, the inhibition at 10 µM in test [3] was more than 50%. Also, the IC50 in test [3] was not above 10000 nM.
